Here are results for 24 compounds from US12780800B1, “Triazole-pyridinyl substituted azacyclohexyl acetic acid compounds as LPA receptor antagonists” (Viva Star Biosciences Limited, priority 2021, dated 2022).

In this experiment the target is T1, LPA1 (Homo sapiens, UniProt Q92633).
T1 construct: ProLink (PK) beta-galactosidase enzyme-fragment tag; host or cells: CHO-K1
T1 sequence (Q92633 whole entry, the tested form may be a part): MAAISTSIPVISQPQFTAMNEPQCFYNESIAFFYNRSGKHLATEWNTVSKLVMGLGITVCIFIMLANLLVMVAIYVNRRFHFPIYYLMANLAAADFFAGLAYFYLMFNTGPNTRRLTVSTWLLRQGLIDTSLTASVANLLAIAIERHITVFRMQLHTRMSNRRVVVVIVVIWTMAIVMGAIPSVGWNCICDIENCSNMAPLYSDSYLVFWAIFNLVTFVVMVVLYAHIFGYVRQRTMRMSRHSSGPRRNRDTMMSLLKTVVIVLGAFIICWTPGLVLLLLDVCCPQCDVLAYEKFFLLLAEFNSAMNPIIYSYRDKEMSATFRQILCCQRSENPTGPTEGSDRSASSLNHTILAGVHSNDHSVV
In words: LPA1 calcium flux assay (LPA1 functional antagonist assay). The class given is cell-based. Conditions: PathHunter CHO-K1 EDG2 β-Arrestin cell line; calcium indicator dye; stimulated with EC80 concentration of LPA; FLIPR Tetra. A digest of the protocol:
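The LPA1 antagonist readout was intracellular calcium flux, and IC50 values were calculated from it. Plates stood 30 min at RT after compound addition. Cells, grown overnight, had first taken up calcium dye over 45 min at 37 °C.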
Background: Calcium flux is commonly read through the fluorescence of an indicator in the cells.
As a reminder, the IC50 is the point on the concentration scale where inhibition reaches its midpoint. In the case of `CCc1nc(-c2nnn(C)c2CNc2noc(CC3CC3)n2)ccc1N1C[C@@H](CC(=O)O)CC(F)(F)C1` [Example 117, (S)-2-(1-(6-(5-(((5-(cyclopropylmethyl)-1,2,4-oxadiazol-3-yl)amino)methyl)-1-methyl-1H-1,2,3-triazol-4-yl)-2-ethylpyridin-3-yl)-5,5-difluoropiperidin-3-yl)acetic acid], the IC50 is 0.1 to 0.5 µM.

In the case of `CCCc1ccnn(CCc2c(-c3ccc(N4CC(CC(=O)O)CC(F)(F)C4)c(C)n3)nnn2C)c1=O` (stereo not drawn) [Example 44, 2-[5,5-difluoro-1-(2-methyl-6-{1-methyl-5-[2-(6-oxo-5-propyl-1,6-dihydropyridazin-1-yl)ethyl]-1H-1,2,3-triazol-4-yl}pyridin-3-yl)piperidin-3-yl]acetic acid], the IC50 is over 5 µM. Turning to `CCc1nc(-c2nnn(C)c2Cn2cc(C3CC3)ccc2=O)ccc1N1C[C@@H](CC(=O)O)CC(F)(F)C1` [Example 15, (S)-2-(1-(6-(5-((5-cyclopropyl-2-oxopyridin-1(2H)-yl)methyl)-1-methyl-1H-1,2,3-triazol-4-yl)-2-ethylpyridin-3-yl)-5,5-difluoropiperidin-3-yl)acetic acid], the IC50 was under 0.1 µM. In the case of `CCc1nc(-c2nnn(C)c2COc2nccc(C3CCC3)n2)ccc1CN1CC(C(=O)O)CC(F)(F)C1` (single isomer, unassigned) [Example 152, (S) or (R)-1-((6-(5-(((4-cyclobutylpyrimidin-2-yl)oxy)methyl)-1-methyl-1H-1,2,3-triazol-4-yl)-2-ethylpyridin-3-yl)methyl)-5,5-difluoropiperidine-3-carboxylic acid] it was under 0.1 µM; in that of `Cn1nnc(-c2ccc(N3CCC[C@H](CC(=O)O)C3)c(C(F)F)n2)c1Cn1nncc1CC1CC1` [Example 168, (R)-2-(1-(6-(5-((5-(cyclopropylmethyl)-1H-1,2,3-triazol-1-yl)methyl)-1-methyl-1H-1,2,3-triazol-4-yl)-2-(difluoromethyl)pyridin-3-yl)piperidin-3-yl)acetic acid], under 0.1 µM; in that of `CCCN(C)C(=O)OCc1c(-c2ccc(CN3CCOC(C(=O)O)C3)c(C)n2)nnn1C` (stereo not drawn) [Example 166, 4-((2-methyl-6-(1-methyl-5-(((methyl (propyl)carbamoyl)oxy)methyl)-1H-1,2,3-triazol-4-yl)pyridin-3-yl)methyl)morpholine-2-carboxylic acid], over 5 µM. Regarding `Cc1nc(-c2cnn(C)c2COc2cc(-n3cccn3)ncn2)ccc1N1C[C@@H](CC(=O)O)CC(F)(F)C1` [Example 89, (S)-2-(1-(6-(5-(((6-(1H-pyrazol-1-yl)pyrimidin-4-yl)oxy)methyl)-1-methyl-1H-pyrazol-4-yl)-2-methylpyridin-3-yl)-5,5-difluoropiperidin-3-yl)acetic acid], the IC50 is under 0.1 µM. In the case of `CCCn1ccnc(OCc2c(-c3ccc(N4C[C@@H](CC(=O)O)CC(F)(F)C4)c(C)n3)nnn2C)c1=O` [Example 106, (S)-2-(5,5-difluoro-1-(2-methyl-6-(1-methyl-5-(((3-oxo-4-propyl-3,4-dihydropyrazin-2-yl)oxy)methyl)-1H-1,2,3-triazol-4-yl)pyridin-3-yl)piperidin-3-yl)acetic acid], the IC50 is over 5 µM. In the case of `CCc1nc(-c2nnn(C)c2COc2nc(C3CCC3)nc(N3CCOCC3)n2)ccc1N1CCC[C@H](CC(=O)O)C1` [Example 96, (R)-2-(1-(6-(5-(((4-cyclobutyl-6-morpholino-1,3,5-triazin-2-yl)oxy)methyl)-1-methyl-1H-1,2,3-triazol-4-yl)-2-ethylpyridin-3-yl)piperidin-3-yl)acetic acid] it was 0.1 to 0.5 µM; in that of `Cc1nc(-c2nnn(C)c2Cn2cc(CC3CC3)nn2)ccc1N1C[C@@H](CC(=O)O)CC(F)(F)C1` [Example 133, (S)-2-(1-(6-(5-((4-(cyclopropylmethyl)-1H-1,2,3-triazol-1-yl)methyl)-1-methyl-1H-1,2,3-triazol-4-yl)-2-methylpyridin-3-yl)-5,5-difluoropiperidin-3-yl)acetic acid], 0.1 to 0.5 µM; in that of `CCCn1ncnc1OCc1c(-c2ccc(N3C[C@@H](CC(=O)O)CC(F)(F)C3)c(CC)n2)nnn1C` [Example 121, (S)-2-(1-(2-ethyl-6-(1-methyl-5-(((1-propyl-1H-1,2,4-triazol-5-yl)oxy)methyl)-1H-1,2,3-triazol-4-yl)pyridin-3-yl)-5,5-difluoropiperidin-3-yl)acetic acid], 0.5 to 5 µM. For `CCc1nc(-c2nnn(C)c2CNc2nccc(C3CCC3)n2)ccc1CN1CC(C(=O)O)CC(F)(F)C1` (single isomer, unassigned) [Example 163, (R) or (S)-1-((6-(5-(((4-cyclobutylpyrimidin-2-yl)amino)methyl)-1-methyl-1H-1,2,3-triazol-4-yl)-2-ethylpyridin-3-yl)methyl)-5,5-difluoropiperidine-3-carboxylic acid], the IC50 lay in the range of 0.1 to 0.5 µM. On to `Cc1nc(-c2nnn(C)c2CN2C[C@H](CC3CC3)N(C)C2=O)ccc1N1C[C@@H](CC(=O)O)CC(F)(F)C1` [Example 63, 2-((S)-1-(6-(5-(((S)-4-(cyclopropylmethyl)-3-methyl-2-oxoimidazolidin-1-yl)methyl)-1-methyl-1H-1,2,3-triazol-4-yl)-2-methylpyridin-3-yl)-5,5-difluoropiperidin-3-yl)acetic acid], for which the half-inhibitory concentration (IC50) fell in the range of 0.1 to 0.5 µM.

`CCCc1ccc(=O)n(Cc2c(-c3ccc(CN4CC(C(=O)O)CC(F)(F)C4)c(CC)n3)nnn2C)c1` (single isomer, unassigned) [Example 149, (S) or (R)-1-((2-ethyl-6-(1-methyl-5-((2-oxo-5-propylpyridin-1(2H)-yl)methyl)-1H-1,2,3-triazol-4-yl)pyridin-3-yl)methyl)-5,5-difluoropiperidine-3-carboxylic acid]: the IC50 is 0.1 to 0.5 µM. With `CCCc1ccc(=O)n(Cc2c(-c3ccc(N4C[C@@H](CC(=O)O)CC(F)(F)C4)c(C)n3)nnn2C)n1` [Example 34, (S)-2-(5,5-difluoro-1-(2-methyl-6-(1-methyl-5-((6-oxo-3-propylpyridazin-1(6H)-yl)methyl)-1H-1,2,3-triazol-4-yl)pyridin-3-yl)piperidin-3-yl)acetic acid], the IC50 lay in the range of 0.5 to 5 µM. For the compound `CCCc1cnn(Cc2c(-c3ccc(N4C[C@@H](CC(=O)O)CC(F)(F)C4)c(C)n3)nnn2C)c(=O)c1` [Example 33, (S)-2-(5,5-difluoro-1-(2-methyl-6-(1-methyl-5-((6-oxo-4-propylpyridazin-1(6H)-yl)methyl)-1H-1,2,3-triazol-4-yl)pyridin-3-yl)piperidin-3-yl)acetic acid], the IC50 was over 5 µM. As for `CCCN(C)C(=O)OCc1c(-c2ccc(CN3CC(C(=O)O)CC(F)(F)C3)c(CC)n2)nnn1C` (single isomer, unassigned) [Example 165, 1-((2-ethyl-6-(1-methyl-5-(((methyl(propyl)carbamoyl)oxy)methyl)-1H-1,2,3-triazol-4-yl)pyridin-3-yl)methyl)-5,5-difluoropiperidine-3-carboxylic acid], the IC50 is 0.1 to 0.5 µM. Regarding `CCCc1ccc(=O)n(Cc2c(-c3ccc(N4CCCC(CC(=O)O)C4=O)c(CC)n3)nnn2C)c1` (single isomer, unassigned) [Example 53, (S) or (R)-2-(1-(2-ethyl-6-(1-methyl-5-((2-oxo-5-propylpyridin-1(2H)-yl)methyl)-1H-1,2,3-triazol-4-yl)pyridin-3-yl)-2-oxopiperidin-3-yl)acetic acid], the IC50 is over 5 µM. As for `CCCN(C)C(=O)OCc1c(-c2ccc(CN3CC(C(=O)O)CC(F)(F)C3)c(CC)n2)nnn1C` (single isomer, unassigned) [Example 164, 1-((2-ethyl-6-(1-methyl-5-(((methyl(propyl)carbamoyl)oxy)methyl)-1H-1,2,3-triazol-4-yl)pyridin-3-yl)methyl)-5,5-difluoropiperidine-3-carboxylic acid], the figure is over 5 µM; as for `CCc1nc(-c2nnn(C)c2CN2C[C@H](CC3CC3)N(C)C2=O)ccc1N1C[C@@H](CC(=O)O)CC(F)(F)C1` [Example 61, 2-((S)-1-(6-(5-(((S)-4-(cyclopropylmethyl)-3-methyl-2-oxoimidazolidin-1-yl)methyl)-1-methyl-1H-1,2,3-triazol-4-yl)-2-ethylpyridin-3-yl)-5,5-difluoropiperidin-3-yl)acetic acid], 0.5 to 5 µM; as for `CCc1nc(-c2nnn(C)c2Cn2cc(CC(C)C)ccc2=O)ccc1CN1CC(C(=O)O)CC(F)(F)C1` (single isomer, unassigned) [Example 155, (R) or (S)-1-((2-ethyl-6-(5-((5-isobutyl-2-oxopyridin-1(2H)-yl)methyl)-1-methyl-1H-1,2,3-triazol-4-yl)pyridin-3-yl)methyl)-5,5-difluoropiperidine-3-carboxylic acid], 0.5 to 5 µM. Regarding `CCc1nc(-c2nnn(C)c2CNc2nccc(C3CC3)n2)ccc1CN1CC(C(=O)O)CC(F)(F)C1` (stereo not drawn) [Example 151, 1-((6-(5-(((4-cyclopropylpyrimidin-2-yl)amino)methyl)-1-methyl-1H-1,2,3-triazol-4-yl)-2-ethylpyridin-3-yl)methyl)-5,5-difluoropiperidine-3-carboxylic acid], the IC50 is 0.5 to 5 µM. In the case of `CCCc1ccc(=O)n(Cc2c(-c3ccc(N4CC(CC(=O)O)CCC4=O)c(CC)n3)nnn2C)c1` (single isomer, unassigned) [Example 54, (R) or (S)-2-(1-(2-ethyl-6-(1-methyl-5-((2-oxo-5-propylpyridin-1(2H)-yl)methyl)-1H-1,2,3-triazol-4-yl)pyridin-3-yl)-6-oxopiperidin-3-yl)acetic acid] it was over 5 µM; in that of `CCc1nc(-c2nnn(C)c2Cn2ccc(CC3CC3)c(C)c2=O)ccc1N1C[C@@H](CC(=O)O)CC(F)(F)C1` [Example 10, (S)-2-(1-(6-(5-((4-(cyclopropylmethyl)-3-methyl-2-oxopyridin-1(2H)-yl)methyl)-1-methyl-1H-1,2,3-triazol-4-yl)-2-ethylpyridin-3-yl)-5,5-difluoropiperidin-3-yl)acetic acid], 0.1 to 0.5 µM.
